Laboratory results as given in ChEMBL document CHEMBL4011592, “Synthesis and evaluation of 7-substituted-5,6-dihydrobenzo[c]acridine derivatives as new c-KIT promoter G-quadruplex binding ligands” (Eur J Med Chem, 2017).
Active and inactive are the calls of the source. The calls are words filed in the database; no cut-off is given here.

Experiments:
[1] = Binding affinity to c-KIT2 G-quadruplex DNA (unknown origin) assessed as ability to promote c-KIT G-rich sequences to form parallel G-quadruplex at 25 uM in absence of KCl measured after 10 mins by CD-spectroscopic analysis
[2] = Binding affinity to 5'-FAM/3'-TAMARA labelled c-KIT1 G-quadruplex DNA (unknown origin) assessed as change in melting temperature at 2 uM by FRET assay
[3] = Binding affinity to F10T duplex DNA (unknown origin) assessed as change in melting temperature at 2 uM by FRET assay
[4] = Binding affinity to 5'-FAM/3'-TAMARA labelled c-KIT1 G-quadruplex DNA (unknown origin) assessed as change in melting temperature at 1 uM by FRET assay
[5] = Binding affinity to 5'-FAM/3'-TAMARA labelled c-KIT2 G-quadruplex DNA (unknown origin) assessed as change in melting temperature at 1 uM by FRET assay
[6] = Binding affinity to F10T duplex DNA (unknown origin) assessed as change in melting temperature at 1 uM by FRET assay
[7] = Binding affinity to 5'-FAM/3'-TAMARA labelled c-KIT1 G-quadruplex DNA (unknown origin) assessed as change in melting temperature at 2 uM in presence ds26 DNA by FRET assay
[8] = Binding affinity to biotinylated c-KIT1 G-quadruplex DNA (unknown origin) by SPR assay
[9] = Binding affinity to biotinylated duplex DNA (unknown origin) by SPR assay
[10] = Selectivity ratio of Kd for biotinylated duplex DNA (unknown origin) to Kd for biotinylated c-KIT1 G-quadruplex DNA (unknown origin)
[11] = Binding affinity to 5'-FAM labelled c-KIT1 G-quadruplex DNA (unknown origin) by microscale thermophoresis
[12] = Binding affinity to 5'-FAM labelled duplex DNA (unknown origin) by microscale thermophoresis
[13] = Binding affinity to c-KIT1 G-quadruplex DNA (unknown origin) assessed as ability to promote c-KIT G-rich sequences to form parallel G-quadruplex at 25 uM in absence of KCl measured after 10 mins by CD-spectroscopic analysis
[14] = Binding affinity to c-KIT1 G-quadruplex DNA (unknown origin) assessed as maintainance of parallel c-KIT G-quadruplex conformation at 5 uM in presence of KCl measured after 10 mins by CD-spectroscopic analysis
[15] = Binding affinity to c-KIT2 G-quadruplex DNA (unknown origin) assessed as maintainance of parallel c-KIT G-quadruplex conformation at 5 uM in presence of KCl measured after 10 mins by CD-spectroscopic analysis
[16] = Binding affinity to c-KIT1 G-quadruplex DNA (unknown origin) assessed as hyperchromicity at 10 uM measured after 10 mins by UV-vis spectroscopic method
[17] = Binding affinity to c-KIT1 G-quadruplex DNA (unknown origin) assessed as red shift at 10 uM measured after 10 mins by UV-vis spectroscopic method
[18] = Binding affinity to c-KIT1 G-quadruplex DNA (unknown origin) assessed as isosbestic point at 10 uM measured after 10 mins by UV-vis spectroscopic method
[19] = Binding affinity to c-KIT1 G-quadruplex DNA (unknown origin) measured after 10 mins by UV-vis spectroscopic method
[20] = Binding affinity to c-KIT1 G-quadruplex DNA (unknown origin) assessed as hyperchromicity at 5 uM measured after 10 mins by fluorescence spectroscopic method
[21] = Binding affinity to c-KIT1 G-quadruplex DNA (unknown origin) assessed as 1:1 binding stoichiometry between compound and G-quadruplex DNA by Job's plot method
[22] = Binding affinity to c-KIT1 G-quadruplex DNA (unknown origin) assessed as 1:1 binding stoichiometry between compound and G-quadruplex DNA 10 uM by ESI-MS spectra analysis
[23] = system: K562; assay: Cytotoxicity against human K562 cells after 48 hrs by MTT assay; format: functional, cell-based; details: K562, 48 h
[24] = system: A549; assay: Cytotoxicity against human A549 cells after 48 hrs by MTT assay; format: functional, cell-based; details: A549, 48 h
[25] = system: HeLa; assay: Cytotoxicity against human HeLa cells after 48 hrs by MTT assay; format: functional, cell-based
[26] = system: BJ; assay: Cytotoxicity against human BJ cells after 48 hrs by MTT assay; format: cell-based
[27] = system: K562; assay: Induction of apoptosis in human K562 cells assessed as late apoptotic cells at 1 uM after 48 hrs by flow cytometric method (reference value: 0.1 %); format: functional
[28] = system: K562; assay: Cytotoxicity against human K562 cells expressing c-KIT measured up to 3 days by Annexin V-FITC/propidium iodide staining based assay; format: functional, cell-based
[29] = system: K562; assay: Induction of apoptosis in human K562 cells assessed as late apoptotic cells at 3 uM after 48 hrs by flow cytometric method (reference value: 0.1 %); format: functional
[30] = system: K562; assay: Induction of apoptosis in human K562 cells assessed as late apoptotic cells at 6 uM after 48 hrs by flow cytometric method (reference value: 0.1 %); format: functional
[31] = system: K562; assay: Induction of apoptosis in human K562 cells assessed as late apoptotic cells at 9 uM after 48 hrs by flow cytometric method (reference value: 0.1 %); format: functional
[32] = system: K562; assay: Induction of apoptosis in human K562 cells assessed as increase in late apoptotic cells after 48 hrs by flow cytometric method; format: functional, cell-based
[33] = species on record: Homo sapiens; assay: Binding affinity to c-KIT G-quadruplex DNA in human K562 cells assessed as reduction in c-KIT mRNA level after 48 hrs by RT-PCR analysis; format: cell-based
[34] = species on record: Homo sapiens; assay: Binding affinity to c-KIT G-quadruplex DNA in human K562 cells assessed as reduction in c-KIT mRNA level at 9 uM after 48 hrs by RT-PCR analysis relative to control; format: cell-based; set-up: scale not given: the % may be the effect or the level left
[35] = species on record: Homo sapiens; assay: Binding affinity to c-KIT G-quadruplex DNA in human K562 cells assessed as reduction in c-KIT protein level after 48 hrs by Western blot analysis; format: cell-based
[36] = system: K562; assay: Effect on total c-KIT protein level in human K562 cells at 9 uM after 48 hrs by Western blot analysis; format: ADME, cell-based; details: k562, 48 h
[37] = system: K562; assay: Induction of apoptosis in human K562 cells assessed as increase in cleaved PARP level at 1 to 9 uM after 48 hrs by Western blot analysis; format: functional, cell-based
[38] = system: K562; assay: Induction of apoptosis in human K562 cells assessed as upregulation of cleaved caspase-3 at 1 to 9 uM after 48 hrs by Western blot analysis; format: functional, cell-based
[39] = system: K562; assay: Induction of apoptosis in human K562 cells assessed as increase in Bax expression after 48 hrs by Western blot analysis; format: functional, cell-based
[40] = system: K562; assay: Induction of apoptosis in human K562 cells assessed as increase in Bad expression after 48 hrs by Western blot analysis; format: functional, cell-based
[41] = system: K562; assay: Induction of apoptosis in human K562 cells assessed as decrease in Bcl-2 expression at 1 to 9 uM after 48 hrs by Western blot analysis; format: functional, cell-based

CCN(CC)CCCNc1c2c(nc3ccccc13)-c1cc(OC)c(OC)cc1CC2
Activity [1]: Active | ΔTm [2]: 15.9 °C | ΔTm [3]: 1.2 °C | ΔTm [4]: 11.9 °C | ΔTm [5]: 5.4 °C | ΔTm [6]: 0.6 °C | Activity [7]: Active | Kd [8]: 4.7 µM | Kd [9]: > 20 µM | Selectivity ratio [10]: > 4.3 | Kd [11]: 1.5 µM | Kd [12]: 10.5 µM | Activity [13]: Active | Activity [14]: Active | Activity [15]: Active | Activity [16]: Active | Activity [17]: Active | Activity [18]: Active | Kd [19]: 3.3 µM | Activity [20]: Active | Activity [21]: Active | Activity [22]: Active | IC50 [23]: 9.2 µM | IC50 [24]: 5.7 µM | IC50 [25]: 3.2 µM | IC50 [26]: 29.4 µM | Activity [27]: 1.8% | Activity [28]: Dose-dependent effect | Activity [29]: 3.6% | Activity [30]: 8.4% | Activity [31]: 64.8% | Activity [32]: Dose-dependent effect | Activity [33]: Dose-dependent effect | Activity [34]: 52% | Activity [35]: Dose-dependent effect | Activity [36]: Non-Toxic | Activity [37]: Active | Activity [38]: Active | Activity [39]: Dose-dependent effect | Activity [40]: Dose-dependent effect | Activity [41]: Active
